Patent US9637476B2, “Atrasentan mandelate salts” (AbbVie Inc., priority 2013, dated 2017)
Several values for one entry are separate records, joined by “and”; a condition that tells them apart may be missing. Equal values may be shown once. Where a name gives a salt, the structure may show the parent alone. Read-outs that look alike come from different tables or passages of the source. Marks after values point to notes of the source that are not given here.

Columns and labels:
Type in all cases: physicochemical
[1] = Crystal morphology assessed by microscopy
[2] = Moisture sorption isotherm (DVS); settings: 25° C.; as the relative humidity decreased below 10%
Procedure: A study was conducted to evaluate the moisture sorption isotherms of atrasentan hemi-sulfate salt (1:1 stoichiometry), monohydrate, and atrasentan S-mandelate salt (1:1 stoichiometry), anhydrate. A sample (about 5 mg to about 20 mg) of the powder to be tested was loaded onto the tared pan of a DVS Advantage dynamic gravimetric water sorption analyzer (Surface Measurement Systems Ltd, Alperton, United Kingdom). The moisture sorption isotherm for each sample was collected at 10% relative humidity intervals as the relative humidity was adjusted in the following manner: (a) 0% to 90% to 0% to 90% to 40% for the hemi-sulfate salt, and (b) 0% to 90% to 0% for the S-mandelate salt. For each step, the dm/dt criteria were 0.001% over 5 minutes with a minimum dm/dt time of 30 minutes and a maximum dm/dt of 120 minutes. Data was collected isothermally at 25° C. with a nitrogen flow rate of […]. The sample was maintained at 30% relative humidity and analyzed by PXRD. The moisture sorption isotherms generated for the hemi-sulfate and S-mandelate salt samples are shown in FIG. 6-A and FIG. 6-B, respectively.

[3] = Oxidative stability (urea-H2O2 co-crystal, HPLC); settings: for RECOVERED (%): solid exposed to urea-H2O2 co-crystal, 40° C., HPLC, individual samples 1-3; for RECOVERED (%) / AVERAGE (%) recovered / AVERAGE % (NORMALIZED): seven days; for AVERAGE (%) recovered / AVERAGE % (NORMALIZED): urea-H2O2, 40° C.; for AVERAGE (%) recovered: mean of samples 1-3; for AVERAGE % (NORMALIZED): sample average normalized to freezer blank average
Procedure: About 1 mg of each solid was placed in a 4 mL glass vial and about 10 mg of urea-H2O2 co-crystal was placed in another 4 mL vial. The two vials then were connected by a connector (Kontes connector, 13-425X13-425, apt NO 747205-1313) and left in an oven at 40° C. for seven days. Blank samples were prepared by placing about 1 mg of each compound in a 4 mL vial and then storing the vial in a freezer at about −20° C. for the same period of time. The oven samples and freezer blanks were analyzed at the same time by HPLC. The measured data are reported in Table II-B below and the normalized data from Table II-B are shown in a bar chart in FIG. 3.

[4] = Intrinsic dissolution rate as a function of chloride ion concentration; settings: for IDR (intrinsic dissolution rate): pH 2.0 phosphate buffer, 37° C., 50 rpm; for linear regression intercept a of IDR = a + b × [Cl−] / linear regression slope b of IDR = a + b × [Cl−]: pH 2.0, [Cl−] 0 to 0.17 M
Procedure: (§1) About 100 mg of the sample tested was prepared by compressing the sample in a stainless steel die under 1100 pounds force with a dwell time of one minute to form a pellet. The die (diameter: 0.373 inch, area: 0.704 cm^2) containing the pellet was submerged in 250 mL of a phosphate buffer dissolution test medium having a pH of 2.0 and a chloride ion concentration of 0 M, 0.017 M, or 0.17 M. The medium was stirred by a paddle at 50 rpm and maintained at 37° C. To measure the concentration of the sample material in test medium, a fiber optic dip probe (μDiss Profile, pION
Inc) was used to monitor the UV absorbance as a function of time. The measured data are reported in Table 13-A below and are shown graphically in FIG. 5.
The intrinsic dissolution data reported in Table 13-A were further evaluated using linear regression analysis.

[5] = Morphology and particle size distribution of the unmilled samples; settings: for PARTICLE SIZE DISTRIBUTION D10 / PARTICLE SIZE DISTRIBUTION D50 / PARTICLE SIZE DISTRIBUTION D90: unmilled; for MORPHOLOGY: unmilled sample used for density measurement
[6] = Bulk density and tap density (USP <616>); settings: unmilled; USP <616> Method I, 100 mL cylinder
Procedure: Bulk and tap density are measured following United States Pharmacopeia and National Formulary guidelines (USP <616>). Approximately 60 mL of each sample is added into a 100 mL graduated cylinder. The powder is carefully leveled without compacting, and the volume is read directly from the cylinder and used to calculate the bulk density according to the relationship: mass/volume. The cylinder containing the powder sample is then mechanically tapped using a VanKel Tap Density Tester (Model 50-1200, Varian, Inc., Palo Alto, Calif.) until there is no change in volume. The volume of the sample is then read and used in the calculation of tap density.
Bulk density and tap density were measured for samples of the following materials: (i) unmilled atrasentan hydrochloride salt having the morphology and particle size distribution listed below in Table 10; and (ii) unmilled atrasentan mandelate salt having the morphology and particle size distribution listed below in Table 10. […] Bulk density was measured in accordance with Bulk Density, Method I of United States Pharmacopeia and National Formulary Guidelines (USP <616>) except that a 100 mL cylinder was filled with the sample for the testing. Tap density was measured in accordance with Tapped Density, Method I of United States Pharmacopeia and National Formulary guidelines (USP <616>) except that a 100 mL cylinder was filled with the sample for the testing.

[7] = Intrinsic dissolution rate as a function of pH; settings: for IDR (intrinsic dissolution rate): 37° C., 50 rpm, single runs
Procedure: as §1, with “of 2.0, 5.0,” for “of 2.0 and a chloride ion concentration of 0 M, 0.017 M,”, “or 7.4.” for “or 0.17 M.”, “in the” for “in test”, “pION Inc) was used to monitor the UV absorbance as a function of time. The measured data are reported in Table 12-A below and are shown graphically in FIG. 4.” for “pION”

## CCCCN(CCCC)C(=O)CN1CC(c2ccc3c(c2)OCO3)C(C(=O)O)C1c1ccc(OC)cc1.O.O=S(=O)(O)O (stereo not drawn)
[1]
  CRYSTAL MORPHOLOGY: Needle
[2]
  solid form change during moisture sorption isotherm: partial conversion from the hydrate form to the anhydrate form

## CCCCN(CCCC)C(=O)CN1CC(c2ccc3c(c2)OCO3)C(C(=O)O)C1c1ccc(OC)cc1.Cl (stereo not drawn)
[1]
  CRYSTAL MORPHOLOGY: Needle

## CCCCN(CCCC)C(=O)CN1C[C@H](c2ccc3c(c2)OCO3)[C@@H](C(=O)O)[C@@H]1c1ccc(OC)cc1.Cl
[1]
  CRYSTAL MORPHOLOGY: Needle

## CCCCN(CCCC)C(=O)CN1CC(c2ccc3c(c2)OCO3)C(C(=O)O)C1c1ccc(OC)cc1.O=C(O)C(O)c1ccccc1 (stereo not drawn)
[1]
  CRYSTAL MORPHOLOGY: Prism

## CCCCN.CCCCN(CCCC)C(=O)CN1CC(c2ccc3c(c2)OCO3)C(C(=O)O)C1c1ccc(OC)cc1 (stereo not drawn)
[1]
  CRYSTAL MORPHOLOGY: Bar

## CCCCN(CCCC)C(=O)CN1C[C@H](c2ccc3c(c2)OCO3)[C@@H](C(=O)O)[C@@H]1c1ccc(OC)cc1 [Hydrochloride]
[3]
  RECOVERED (%): 87.62% and 87.21% and 83.11%
  AVERAGE (%) recovered: 85.98%
  AVERAGE % (NORMALIZED): 89.48%
[4]; [Cl−] 0.0 M
  IDR (intrinsic dissolution rate): 1.4 × 10^−1 (n = 1) mg/min/cm^2
[4]; [Cl−] 0.017 M
  IDR (intrinsic dissolution rate): 1.3 × 10^−1 (n = 1) mg/min/cm^2
[4]; [Cl−] 0.17 M
  IDR (intrinsic dissolution rate): 4.2 × 10^−2 (n = 1) mg/min/cm^2
[4]
  linear regression intercept a of IDR = a + b × [Cl−]: a2 = 0.1377
  linear regression slope b of IDR = a + b × [Cl−]: b2 = −0.5609
[1]; listed as Hydrochloride (1:1 Stoichiometry), Crystalline Form II
  CRYSTAL MORPHOLOGY: Needle
[5]
  PARTICLE SIZE DISTRIBUTION D10: 6.0 μm
  PARTICLE SIZE DISTRIBUTION D50: 20 μm
  PARTICLE SIZE DISTRIBUTION D90: 86 μm
  MORPHOLOGY: Needle
[6]
  BULK DENSITY: 0.11 g/mL
  TAP DENSITY: 0.20 g/mL

## CCCCN(CCCC)C(=O)CN1C[C@H](c2ccc3c(c2)OCO3)[C@@H](C(=O)O)[C@@H]1c1ccc(OC)cc1 [Parent, (2R,3R,4S)-4-(1,3-benzodioxol-5-yl)-1-[2-(dibutylamino)-2-oxoethyl]-2-(4-methoxyphenyl)pyaolidine-3-carboxylic acid]
[3]
  RECOVERED (%): 93.76% and 91.62% and 89.37%
  AVERAGE (%) recovered: 91.58%
  AVERAGE % (NORMALIZED): 89.56%
[7]; pH 2.0 phosphate buffer
  IDR (intrinsic dissolution rate): 2.7 × 10^−2 (n = 1) mg/min/cm^2
[7]; pH 5.0 phosphate buffer
  IDR (intrinsic dissolution rate): 5.1 × 10^−3 mg/min/cm^2 and 5.4 × 10^−3 mg/min/cm^2
[7]; pH 7.4 phosphate buffer
  IDR (intrinsic dissolution rate): 3.6 × 10^−2 (n = 1) mg/min/cm^2
[1]; Hemi-hydrate
  CRYSTAL MORPHOLOGY: Prism

## CCCCN(CCCC)C(=O)CN1C[C@H](c2ccc3c(c2)OCO3)[C@@H](C(=O)O)[C@@H]1c1ccc(OC)cc1 [Parent, Anhydrate, (2R,3R,4S)-4-(1,3-benzodioxol-5-yl)-1-[2-(dibutylamino)-2-oxoethyl]-2-(4-methoxyphenyl)pyaolidine-3-carboxylic acid]
[1]
  CRYSTAL MORPHOLOGY: Needle

## CCCCN(CCCC)C(=O)CN1C[C@H](c2ccc3c(c2)OCO3)[C@@H](C(=O)O)[C@@H]1c1ccc(OC)cc1 [Parent, Quarter-hydrate, (2R,3R,4S)-4-(1,3-benzodioxol-5-yl)-1-[2-(dibutylamino)-2-oxoethyl]-2-(4-methoxyphenyl)pyaolidine-3-carboxylic acid]
[1]
  CRYSTAL MORPHOLOGY: Needle

## CCCCN(CCCC)C(=O)CN1CC(c2ccc3c(c2)OCO3)C(C(=O)O)C1c1ccc(OC)cc1.CCCCN(CCCC)C(=O)CN1CC(c2ccc3c(c2)OCO3)C(C(=O)O)C1c1ccc(OC)cc1.O=C(O)C(O)c1ccccc1 (stereo not drawn) [S-Mandelate (2:1 Stoichiometry), Hydrate]
[1]
  CRYSTAL MORPHOLOGY: Prism

## Mandelate
[3]; ANOVA of sample recovery proportion
  oxidative stability compared with atrasentan parent and hydrochloride salt: greater oxidative stability
[3]
  RECOVERED (%): 82.40% and 80.67% and 83.11%
  AVERAGE (%) recovered: 79.58%
  AVERAGE % (NORMALIZED): 99.30%
[4]; [Cl−] 0.0 M
  IDR (intrinsic dissolution rate): 1.0 × 10^−1 (n = 1) mg/min/cm^2
[4]; [Cl−] 0.017 M
  IDR (intrinsic dissolution rate): 1.0 × 10^−1 (n = 1) mg/min/cm^2
[4]; [Cl−] 0.17 M
  IDR (intrinsic dissolution rate): 8.3 × 10^−2 (n = 3)** mg/min/cm^2
[4]; linear regression slopes
  sensitivity of intrinsic dissolution rate to chloride ion concentration compared with hydrochloride salt: less sensitive to chloride ion concentration
[4]
  linear regression intercept a of IDR = a + b × [Cl−]: a1 = 0.1035
  linear regression slope b of IDR = a + b × [Cl−]: b1 = −0.1222
[7]; pH 5.0 phosphate buffer
  IDR (intrinsic dissolution rate): 2.1 × 10^−2 mg/min/cm^2 and 1.8 × 10^−2 mg/min/cm^2
[7]; pH 7.4 phosphate buffer
  IDR (intrinsic dissolution rate): 1.1 × 10^−1 mg/min/cm^2 and 1.0 × 10^−1 mg/min/cm^2
[7]; paired t-test, pH 2.0, 5.0, 7.4
  intrinsic dissolution rate compared with atrasentan parent: statistically greater intrinsic dissolution rate
[1]
  CRYSTAL MORPHOLOGY: Prism
[5]
  PARTICLE SIZE DISTRIBUTION D10: 16 μm
  PARTICLE SIZE DISTRIBUTION D50: 49 μm
  PARTICLE SIZE DISTRIBUTION D90: 141 μm
  MORPHOLOGY: Prismatic
[6]
  BULK DENSITY: 0.25 g/mL
  TAP DENSITY: 0.40 g/mL
